Measurements: patent publication US11254686B1 (Corvus Pharmaceuticals, Inc., priority 2017, dated 2022)

Key:
Assay type in all cases: biochemical
adenosine A2B receptor = adenosine A2B receptor (Homo sapiens (Human), UniProt P29275); experiment: Adenosine receptor activity assay (Table 1), A2B activity; conditions: for Ratio: A2A activity to A2B activity (A2A/A2B); for IC50: read-out: Ave A2B cAMP IC50
adenosine A1 receptor = adenosine A1 receptor (Homo sapiens (Human), UniProt P30542); experiment: A1 cAMP IC50 assay (Table 1)
Chain of adenosine A1 receptor (P30542 whole entry): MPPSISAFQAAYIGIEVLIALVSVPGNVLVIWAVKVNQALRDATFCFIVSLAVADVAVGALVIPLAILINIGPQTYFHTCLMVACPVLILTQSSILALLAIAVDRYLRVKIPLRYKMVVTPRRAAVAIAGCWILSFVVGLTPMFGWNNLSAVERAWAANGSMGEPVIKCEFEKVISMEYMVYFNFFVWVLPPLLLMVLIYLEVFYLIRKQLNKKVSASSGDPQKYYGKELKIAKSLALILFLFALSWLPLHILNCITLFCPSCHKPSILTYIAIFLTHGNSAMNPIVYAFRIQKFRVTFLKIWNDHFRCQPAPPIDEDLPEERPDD

adenosine A3 receptor = adenosine A3 receptor (Homo sapiens (Human), UniProt P0DMS8); experiment: A3 cAMP IC50 assay (Table 1)
Chain of adenosine A3 receptor (P0DMS8 whole entry): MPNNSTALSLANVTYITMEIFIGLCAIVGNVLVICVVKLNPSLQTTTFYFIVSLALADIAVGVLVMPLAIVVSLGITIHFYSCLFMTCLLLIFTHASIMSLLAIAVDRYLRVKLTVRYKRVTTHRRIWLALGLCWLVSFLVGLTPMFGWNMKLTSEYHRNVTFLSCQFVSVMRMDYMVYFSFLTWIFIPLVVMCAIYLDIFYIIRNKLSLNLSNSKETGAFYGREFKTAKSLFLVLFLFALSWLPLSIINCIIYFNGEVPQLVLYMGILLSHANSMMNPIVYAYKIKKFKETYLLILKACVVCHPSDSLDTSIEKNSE

adenosine A2A receptor = adenosine A2A receptor (Homo sapiens (Human), UniProt P29274); experiment: Adenosine receptor activity assay (Table 1), A2A activity; conditions: read-out: Ave A2A cAMP IC50
Chain of adenosine A2A receptor (P29274 whole entry): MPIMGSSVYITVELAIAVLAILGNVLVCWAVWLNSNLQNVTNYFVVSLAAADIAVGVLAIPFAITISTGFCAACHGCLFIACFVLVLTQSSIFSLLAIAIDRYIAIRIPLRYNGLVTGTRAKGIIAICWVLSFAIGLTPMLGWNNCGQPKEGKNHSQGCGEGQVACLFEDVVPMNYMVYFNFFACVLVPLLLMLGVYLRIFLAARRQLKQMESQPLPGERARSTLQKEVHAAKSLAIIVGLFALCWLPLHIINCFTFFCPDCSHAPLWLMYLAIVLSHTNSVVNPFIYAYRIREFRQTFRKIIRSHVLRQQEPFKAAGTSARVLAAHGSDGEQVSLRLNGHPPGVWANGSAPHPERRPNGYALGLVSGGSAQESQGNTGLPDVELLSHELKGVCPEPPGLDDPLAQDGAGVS

Chain of adenosine A2B receptor (P29275 whole entry): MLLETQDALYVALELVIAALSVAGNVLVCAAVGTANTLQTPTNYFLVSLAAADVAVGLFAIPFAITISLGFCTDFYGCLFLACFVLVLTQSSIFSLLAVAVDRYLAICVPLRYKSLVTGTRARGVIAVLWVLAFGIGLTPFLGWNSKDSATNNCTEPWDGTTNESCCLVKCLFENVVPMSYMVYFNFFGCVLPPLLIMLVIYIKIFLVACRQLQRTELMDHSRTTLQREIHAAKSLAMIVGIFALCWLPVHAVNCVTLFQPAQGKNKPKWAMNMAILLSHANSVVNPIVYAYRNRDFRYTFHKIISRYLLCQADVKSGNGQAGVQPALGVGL

| Structure (SMILES) | Ratio (adenosine A2B receptor) | IC50 (adenosine A2B receptor) [nM] | IC50 (adenosine A1 receptor) [nM] | IC50 (adenosine A3 receptor) [nM] | IC50 (adenosine A2A receptor) [nM] |
| --- | --- | --- | --- | --- | --- |
| C[C@H](Nc1nc(C(=O)N2CCC(F)(F)C2)c2sccc2n1)c1cccnc1 [Example Z13, (S)-(3,3-Difluoropyrrolidin-1-yl)(2-((1-(pyridin-3-yl)ethyl)amino)thieno[3,2-d]pyrimidin-4-yl)methanone] | 3.93 | 10 to 50 | > 500 | > 500 | 100 to 500 |
| C[C@H](Nc1nc(C(=O)NCc2ccccc2)c2sccc2n1)c1cccnc1 [Example Z42, (S)—N-Benzyl-2-((1-(pyridin-3-yl)ethyl)amino)thieno[3,2-d]pyrimidine-4-carboxamide] | 0.20 | 100 to 500 | 100 to 500 | 50 to 100 | 10 to 50 |
| COc1cccc(CNC(=O)c2nc(N[C@@H](C)c3cccnc3)nc3ccsc23)n1 [Example Z73, (S)—N-((6-Methoxypyridin-2-yl)methyl)-2-((1-(pyridin-3-yl)ethyl)amino)thieno[3,2-d]pyrimidine-4-carboxamide] | 3.11 | 10 to 50 | > 500 | 50 to 100 | 50 to 100 |
| O=C(c1nc(NCc2cccc(F)c2)nc2ccsc12)N1CCCC1 [Example Z84, (2-((3-Fluorobenzyl)amino)thieno[3,2-d]pyrimidin-4-yl)(pyrrolidin-1-yl)methanone] | 18.10 | 10 to 50 | > 500 | > 500 | > 500 |
| C[C@H](Nc1nc(C(=O)NCc2ccccn2)c2sccc2n1)c1cccnc1 [Example Z89, (S)—N-(Pyridin-2-ylmethyl)-2-((1-(pyridin-3-yl)ethyl)amino)thieno[3,2-d]pyrimidine-4-carboxamide] | 0.89 | 10 to 50 | > 500 | 50 to 100 | 10 to 50 |
| O=C(c1nc(NCc2cncc(Cl)c2)nc2ccsc12)N1CCCC1 [Example Z93, (2-(((5-Chloropyridin-3-yl)methyl)amino)thieno[3,2-d]pyrimidin-4-yl)(pyrrolidin-1-yl)methanone] | 57.59 | 10 to 50 | > 500 | > 500 | > 500 |
| O=C(c1nc(NCc2ccccn2)nc2ccsc12)N1CCCC1 [Example Z95, (2-((Pyridin-2-ylmethyl)amino)thieno[3,2-d]pyrimidin-4-yl)(pyrrolidin-1-yl)methanone] | 8.80 | 10 to 50 | > 500 | > 500 | 100 to 500 |
| C[C@H](Nc1nc(C(=O)NCc2ccc(OCC3CC3)nc2)c2sccc2n1)c1ccccn1 [Example Z107, (S)—N-((6-(Cyclopropylmethoxy)pyridin-3-yl)methyl)-2-((1-(pyridin-2-yl)ethyl)amino)thieno[3,2-d]pyrimidine-4-carboxamide] | 0.84 | 50 to 100 | 100 to 500 | 100 to 500 | 50 to 100 |
| C[C@H](Nc1nc(C(=O)N2CCC2)c2sccc2n1)c1cccc(F)c1 [Example Z128, (S)-Azetidin-1-yl(2-((1-(3-fluorophenyl)ethyl)amino)thieno[3,2-d]pyrimidin-4-yl)methanone] | 32.43 | < 10 | > 500 | > 500 | 50 to 100 |
| C[C@H](Nc1nc(C(=O)N2CC[C@@H](O)C2)c2sccc2n1)c1cccc(F)c1 [Example Z132, (2-(((S)-1-(3-Fluorophenyl)ethyl)amino)thieno[3,2-d]pyrimidin-4-yl)((R)-3-hydroxypyrrolidin-1-yl)methanone] | 20.13 | < 10 | > 500 | > 500 | 100 to 500 |
| C[C@H](Nc1nc(C(=O)N[C@H]2CCN(C(=O)OC(C)(C)C)C2)c2sccc2n1)c1ccccn1 [Example Z143, tert-Butyl (S)-3-(2-(((S)-1-(pyridin-2-yl)ethyl)amino)thieno[3,2-d]pyrimidine-4-carboxamido)pyrrolidine-1-carboxylate] | 0.44 | 50 to 100 | > 500 | 10 to 50 | 10 to 50 |
| COCCNC(=O)c1nc(N[C@@H](C)c2ccccn2)nc2ccsc12 [Example Z144, (S)—N-(2-Methoxyethyl)-2-((1-(pyridin-2-yl)ethyl)amino)thieno[3,2-d]pyrimidine-4-carboxamide] | 1.52 | 10 to 50 | > 500 | 50 to 100 | 50 to 100 |
| CNc1cc2nc(N[C@@H](C)c3cccnc3)nc(C(=O)N3CCC3)c2s1 [Example Z153, (S)-Azetidin-1-yl(6-(methylamino)-2-((1-(pyridin-3-yl)ethyl)amino)thieno[3,2-d]pyrimidin-4-yl)methanone] | 46.65 | < 10 | > 500 | 50 to 100 | 100 to 500 |
| C[C@H](Nc1nc(C(=O)N[C@H]2C[C@@H](O)C2)c2sccc2n1)c1ccccn1 [Example Z158, N-((1s,3R)-3-Hydroxycyclobutyl)-2-(((S)-1-(pyridin-2-yl)ethyl)amino)thieno[3,2-d]pyrimidine-4-carboxamide] |  | < 10 | 100 to 500 | > 500 | 10 to 50 |
| C[C@H](Nc1nc(C(=O)N[C@H]2C[C@H](O)C2)c2sccc2n1)c1ccccn1 [Example Z159, N-((1r,3S)-3-Hydroxycyclobutyl)-2-(((S)-1-(pyridin-2-yl)ethyl)amino)thieno[3,2-d]pyrimidine-4-carboxamide] | 5.18 | 10 to 50 | > 500 | > 500 | 100 to 500 |
| CNc1cc2nc(NCc3ccccn3)nc(C(=O)N3CCCC3)c2s1 [Example Z160, (6-(Methylamino)-2-((pyridin-2-ylmethyl)amino)thieno[3,2-d]pyrimidin-4-yl)(pyrrolidin-1-yl)methanone] | 22.65 | 10 to 50 | > 500 | 50 to 100 | > 500 |
| CNc1cc2nc(N[C@@H](C)c3cccnc3)nc(C(=O)N3CC[C@@H](F)C3)c2s1 [Example Z161, ((R)-3-Fluoropyrrolidin-1-yl)(6-(methylamino)-2-(((S)-1-(pyridin-3-yl)ethyl)amino)thieno[3,2-d]pyrimidin-4-yl)methanone] | 29.83 | < 10 | > 500 | 50 to 100 | 100 to 500 |
| C[C@H](Nc1nc(C(=O)NC[C@@H](C)O)c2sccc2n1)c1ccccn1 [Example Z162, N—((R)-2-Hydroxypropyl)-2-(((S′)-1-(pyridin-2-yl)ethyl)amino)thieno[3,2-d]pyrimidine-4-carboxamide] | 5.97 | 10 to 50 | > 500 | > 500 | 100 to 500 |
| C[C@H](O)CNC(=O)c1nc(N[C@@H](C)c2ccccn2)nc2ccsc12 [Example Z163, N—((S)-2-Hydroxypropyl)-2-(((S)-1-(pyridin-2-yl)ethyl)amino)thieno[3,2-d]pyrimidine-4-carboxamide] | 4.38 | 50 to 100 | > 500 | > 500 | 100 to 500 |
| CC(C)(C)OC(=O)N[C@@H]1CCN(C(=O)c2nc(NCc3cc(F)cc(F)c3)nc3ccsc23)C1 [Example Z167, tert-Butyl (R)-(1-(2-((3,5-difluorobenzyl)amino)thieno[3,2-d]pyrimidine-4-carbonyl)pyrrolidin-3-yl)carbamate] | 16.55 | 10 to 50 | > 500 | 50 to 100 | 100 to 500 |
| CCOc1ccc(CNC(=O)c2nc(N[C@@H](C)c3ccccn3)nc3ccsc23)cn1 [Example Z170, (S)—N-((6-ethoxypyridin-3-yl)methyl)-2-((1-(pyridin-2-yl)ethyl)amino)thieno[3,2-d]pyrimidine-4-carboxamide] | 1.24 | 50 to 100 | 100 to 500 | 100 to 500 | 50 to 100 |
| CNc1cc2nc(N[C@@H](C)c3cccnc3)nc(C(=O)N3CC[C@@H](O)C3)c2s1 [Example Z172, ((R)-3-Hydroxypyrrolidin-1-yl)(6-(methylamino)-2-(((S)-1-(pyridin-3-yl)ethyl)amino)thieno[3,2-d]pyrimidin-4-yl)methanone] | 54.37 | 50 to 100 | > 500 | > 500 | > 500 |
| CNc1cc2nc(N[C@@H](C)c3ccccn3)nc(C(=O)N3CCC3)c2s1 [Example Z173, (S)-Azetidin-1-yl(6-(methylamino)-2-((1-(pyridin-2-yl)ethyl)amino)thieno[3,2-d]pyrimidin-4-yl)methanone] | 45.26 | < 10 | > 500 | 50 to 100 | 100 to 500 |
| CNc1cc2nc(N[C@@H](C)c3ccccn3)nc(C(=O)N3CC[C@@H](F)C3)c2s1 [Example Z175, ((R)-3-fluoropyrrolidin-1-yl)(6-(methylamino)-2-(((S)-1-(pyridin-2-yl)ethyl)amino)thieno[3,2-d]pyrimidin-4-yl)methanone] | 22.59 | < 10 | > 500 | 50 to 100 | 100 to 500 |
| CNc1cc2nc(N[C@@H](C)c3ccccn3)nc(C(=O)N3CC[C@@H](O)C3)c2s1 [Example Z176, ((R)-3-Hydroxypyrrolidin-1-yl)(6-(methylamino)-2-(((S)-1-(pyridin-2-yl)ethyl)amino)thieno[3,2-d]pyrimidin-4-yl)methanone] | 27.44 | 10 to 50 | > 500 | 50 to 100 | > 500 |
